From publication PMC7180572, “5-Alkylamino-N-phenylpyrazine-2-carboxamides: Design, Preparation, and Antimycobacterial Evaluation” (Molecules, 2020)
Converted amounts (≈) assume the structure as drawn. “And” between values parts separate entries of the source, which are not always exact repeats. Equal values may be shown once. Read-outs that look alike come from different tables or passages of the source.

Columns and labels:
[1] = test system: Mycobacterium tuberculosis H37Ra ITM-M006710 (ATCC 9431); test: Microdilution broth, modified Microplate Alamar Blue Assay, whole cell growth inhibition; format: cell-based; conditions: Mycobacterium tuberculosis, read-out: MIC Mtb H37Ra
[2] = test system: Mycobacterium aurum DSM 43999 (ATCC 23366); test: as above; format: cell-based; conditions: Mycolicibacterium aurum, read-out: MIC Mycobacterium aurum
[3] = test system: Staphylococcus epidermidis ATCC 12228, CCM 4418; test: Antibacterial microdilution broth method (EUCAST); format: cell-based; conditions: read-out: MIC SE
[4] = test system: Pseudomonas aeruginosa ATCC 27853, CCM 3955; test: Antibacterial microdilution broth method (EUCAST); format: cell-based; conditions: read-out: MIC PA
[5] = test system: Acinetobacter baumanii ATCC 19606, DSM 30007; test: Antibacterial microdilution broth method (EUCAST); format: cell-based; conditions: Acinetobacter baumannii
[6] = test system: Candida krusei ATCC 6258, CCM 8271; test: Antifungal microdilution broth method (EUCAST); format: cell-based; conditions: Pichia kudriavzevii, read-out: MIC CK
[7] = test system: Mycobacterium smegmatis DSM 43465 (ATCC 607); test: Microdilution broth, modified Microplate Alamar Blue Assay, whole cell growth inhibition; format: cell-based; conditions: Mycolicibacterium smegmatis, read-out: MIC Mycobacterium smegmatis
[8] = test system: Enterococcus faecalis ATCC 29212, CCM 4224; test: Antibacterial microdilution broth method (EUCAST); format: cell-based; conditions: read-out: MIC EF
[9] = test system: Candida albicans ATCC 24433, CCM 8320; test: Antifungal microdilution broth method (EUCAST); format: cell-based; conditions: read-out: MIC CA
[10] = test system: Trichophyton interdigitale ATCC 9533, CCM 8377; test: Antifungal microdilution broth method (EUCAST); format: cell-based; conditions: read-out: MIC TI
HepG2 cells = test: HepG2 cytotoxicity, CellTiter 96 (MTS) assay; format: cell-based, human; conditions: for IC50: Homo sapiens, HepG2, 24 h, read-out: HepG2 IC50
[11] = test system: Aspergillus flavus CCM 8363; test: Antifungal microdilution broth method (EUCAST); format: cell-based; conditions: read-out: MIC AFla
[12] = test system: Absidia corymbifera CCM 8077 (Lichtheimia corymbifera); test: Antifungal microdilution broth method (EUCAST); format: cell-based; conditions: read-out: MIC AC
[13] = test system: Candida tropicalis ATCC 750, CCM 8264; test: Antifungal microdilution broth method (EUCAST); format: cell-based; conditions: read-out: MIC CT
[14] = test system: Candida parapsilosis ATCC 22019, CCM 8260; test: Antifungal microdilution broth method (EUCAST); format: cell-based; conditions: Lodderomyces parapsilosis, read-out: MIC CP
[15] = test system: Escherichia coli ATCC 25922, CCM 3954; test: Antibacterial microdilution broth method (EUCAST); format: cell-based; conditions: read-out: MIC EC
[16] = test system: Staphylococcus aureus spp.aureus ATCC 29213, CCM 4223; test: Antibacterial microdilution broth method (EUCAST); format: cell-based; conditions: read-out: MIC SA
[17] = test system: Klebsiella pneumoniae ATCC 10031, CCM 4415; test: Antibacterial microdilution broth method (EUCAST)
[18] = test system: Staphylococcus aureus methicillin resistant ATCC 43300, CCM 4750; test: microbe, parasite or virus in culture; format: cell-based; conditions: ATCC 43300 / CCM 4750 / MRSA, read-out: MIC MRSA
[19] = test system: Aspergillus fumigatus ATCC 204305; test: Antifungal microdilution broth method (EUCAST); format: cell-based; conditions: read-out: MIC AF
[20] = in vitro, Middlebrook 7H9 broth, resazurin

In the case of `CCCCCCCCNc1cnc(C(=O)Nc2ccc(C)cc2)cn1` [Compound 4f, 5-(octylamino)-N-(p-tolyl)pyrazine-2-carboxamide], the MIC [1, 20] is reported as at least 250 µg/mL, the MIC [2] is reported as at least 250 µg/mL and the MIC ([3]; 24 h) is reported as over 125 µM. It also gave an MIC ([3]; 48 h) of over 125 µM, an MIC ([4]; 72 h) of over 125 µM and an MIC ([4]; 120 h) of over 125 µM. For the same compound, the MIC ([5]; 24h) was over 125 µM, the MIC ([5]; 48h) was over 125 µM and the MIC ([6]; 24 h) was over 125 µM. The MIC ([6]; 48 h) was over 125 µM, the MIC [7] was at least 250 µg/mL and the melting point was 155 to 156 °C. The MIC ([8]; 24 h) was over 125 µM, the MIC ([8]; 48 h) was over 125 µM and the MIC ([9]; 24 h) was over 125 µM. It also gave an MIC ([9]; 48 h) of over 125 µM, an MIC ([10]; 72 h) of over 125 µM and an MIC ([10]; 120 h) of over 125 µM. The IC50 (HepG2 cells) was over 25 µM, the MIC ([11]; CCM8363, 24 h) was over 125 µM and the MIC ([11]; CCM8363, 48 h) was over 125 µM. The MIC ([12]; CCM8077, 24 h) was over 125 µM, the MIC ([12]; CCM8077, 48 h) was over 125 µM and the MIC ([13]; 24 h) was over 125 µM. The MIC ([13]; 48 h) was over 125 µM, the MIC ([14]; 24 h) was over 125 µM and the MIC ([14]; 48 h) was over 125 µM. The MIC ([15]; 24 h) was over 125 µM, the MIC ([15]; 48 h) was over 125 µM and the MIC ([16]; 24 h) was over 125 µM. For the same compound, the MIC ([16]; 48 h) was over 125 µM, the “MIC KP” value ([17]; 24h) was over 125 µM and the “MIC KP” value ([17]; 48h) was over 125 µM. For the same compound, the MIC ([18]; 24 h) was over 125 µM, the MIC ([18]; 48 h) was over 125 µM and the MIC ([19]; ATCC204305, 24 h) was over 125 µM. For the same compound, the MIC ([19]; ATCC204305, 48 h) was over 125 µM.

`CCCNc1cnc(C(=O)Nc2ccc(CC)cc2)cn1` [Compound 5a, N-(4-ethylphenyl)-5-(propylamino)pyrazine-2-carboxamide] gave an MIC ([1]; MIC converted to µM) of 27.5 µM, an MIC [1, 20] of 7.81 µg/mL and an MIC [2] of at least 500 µg/mL. It also gave an MIC ([3]; 24 h) of over 125 µM, an MIC ([3]; 48 h) of over 125 µM and an MIC ([4]; 72 h) of over 125 µM. For the same compound, the MIC ([4]; 120 h) was over 125 µM, the MIC ([5]; 24h) was over 125 µM and the MIC ([5]; 48h) was over 125 µM. It also gave an MIC ([6]; 24 h) of over 125 µM, an MIC ([6]; 48 h) of over 125 µM and an MIC [7] of 7.81 µg/mL (≈ 27.5 µM). It also gave a melting point of 141.8 to 142.8 °C, an MIC ([8]; 24 h) of over 125 µM and an MIC ([8]; 48 h) of over 125 µM. For the same compound, the MIC ([9]; 24 h) was over 125 µM, the MIC ([9]; 48 h) was over 125 µM and the MIC ([10]; 72 h) was over 125 µM. For the same compound, the MIC ([10]; 120 h) was over 125 µM, the IC50 (HepG2 cells) was 495 µM and the “SI, selectivity index” value (HepG2 cells; IC50 (HepG2)/MIC against Mtb H37Ra (in µM)) was 18 and 18.01. For the same compound, the MIC ([11]; CCM8363, 24 h) was over 125 µM, the MIC ([11]; CCM8363, 48 h) was over 125 µM and the MIC ([12]; CCM8077, 24 h) was over 125 µM. It also gave an MIC ([12]; CCM8077, 48 h) of over 125 µM, an MIC ([13]; 24 h) of over 125 µM and an MIC ([13]; 48 h) of over 125 µM. It also gave an MIC ([14]; 24 h) of over 125 µM, an MIC ([14]; 48 h) of over 125 µM and an MIC ([15]; 24 h) of over 125 µM. It also gave an MIC ([15]; 48 h) of over 125 µM, an MIC ([16]; 24 h) of over 125 µM and an MIC ([16]; 48 h) of over 125 µM. The “MIC KP” value ([17]; 24h) was over 125 µM, the “MIC KP” value ([17]; 48h) was over 125 µM and the MIC ([18]; 24 h) was over 125 µM. It also gave an MIC ([18]; 48 h) of over 125 µM, an MIC ([19]; ATCC204305, 24 h) of over 125 µM and an MIC ([19]; ATCC204305, 48 h) of over 125 µM.

With `CCCCCCNc1cnc(C(=O)Nc2ccc(CC)cc2)cn1` [Compound 5d, N-(4-ethylphenyl)-5-(hexylamino)pyrazine-2-carboxamide] the MIC [1, 20] was at least 500 µg/mL, the MIC [2] was at least 500 µg/mL and the MIC ([3]; 24 h) was over 500 µM. It also gave an MIC ([3]; 48 h) of over 500 µM, an MIC ([4]; 72 h) of over 500 µM and an MIC ([4]; 120 h) of over 500 µM. The MIC ([5]; 24h) was over 500 µM, the MIC ([5]; 48h) was over 500 µM and the MIC ([6]; 24 h) was over 125 µM. It also gave an MIC ([6]; 48 h) of over 125 µM, an MIC [7] of at least 500 µg/mL and a melting point of 138 to 139 °C. For the same compound, the MIC ([8]; 24 h) was over 500 µM, the MIC ([8]; 48 h) was over 500 µM and the MIC ([9]; 24 h) was over 125 µM. The MIC ([9]; 48 h) was over 125 µM, the MIC ([10]; 72 h) was over 125 µM and the MIC ([10]; 120 h) was over 125 µM. The IC50 (HepG2 cells) was over 25 µM, the MIC ([11]; CCM8363, 24 h) was over 125 µM and the MIC ([11]; CCM8363, 48 h) was over 125 µM. It also gave an MIC ([12]; CCM8077, 24 h) of over 125 µM, an MIC ([12]; CCM8077, 48 h) of over 125 µM and an MIC ([13]; 24 h) of over 125 µM. It also gave an MIC ([13]; 48 h) of over 125 µM, an MIC ([14]; 24 h) of over 125 µM and an MIC ([14]; 48 h) of over 125 µM. It also gave an MIC ([15]; 24 h) of over 500 µM, an MIC ([15]; 48 h) of over 500 µM and an MIC ([16]; 24 h) of over 500 µM. For the same compound, the MIC ([16]; 48 h) was over 500 µM, the “MIC KP” value ([17]; 24h) was over 500 µM and the “MIC KP” value ([17]; 48h) was over 500 µM. The MIC ([18]; 24 h) was over 500 µM, the MIC ([18]; 48 h) was over 500 µM and the MIC ([19]; ATCC204305, 24 h) was over 125 µM. The MIC ([19]; ATCC204305, 48 h) was over 125 µM.

With `CCCCCCCNc1cnc(C(=O)Nc2ccc(CC)cc2)cn1` [Compound 5e, N-(4-ethylphenyl)-5-(heptylamino)pyrazine-2-carboxamide] the MIC [1, 20] was at least 500 µg/mL, the MIC [2] was at least 500 µg/mL and the MIC ([3]; 24 h) was over 500 µM. It also gave an MIC ([3]; 48 h) of over 500 µM, an MIC ([4]; 72 h) of over 500 µM and an MIC ([4]; 120 h) of over 500 µM. The MIC ([5]; 24h) was over 500 µM, the MIC ([5]; 48h) was over 500 µM and the MIC ([6]; 24 h) was over 125 µM. It also gave an MIC ([6]; 48 h) of over 125 µM, an MIC [7] of at least 500 µg/mL and a melting point of 131 to 132 °C. The MIC ([8]; 24 h) was over 500 µM, the MIC ([8]; 48 h) was over 500 µM and the MIC ([9]; 24 h) was over 125 µM. The MIC ([9]; 48 h) was over 125 µM, the MIC ([10]; 72 h) was over 125 µM and the MIC ([10]; 120 h) was over 125 µM. It also gave an IC50 (HepG2 cells) of over 25 µM, an MIC ([11]; CCM8363, 24 h) of over 125 µM and an MIC ([11]; CCM8363, 48 h) of over 125 µM. For the same compound, the MIC ([12]; CCM8077, 24 h) was over 125 µM, the MIC ([12]; CCM8077, 48 h) was over 125 µM and the MIC ([13]; 24 h) was over 125 µM. For the same compound, the MIC ([13]; 48 h) was over 125 µM, the MIC ([14]; 24 h) was over 125 µM and the MIC ([14]; 48 h) was over 125 µM. It also gave an MIC ([15]; 24 h) of over 500 µM, an MIC ([15]; 48 h) of over 500 µM and an MIC ([16]; 24 h) of over 500 µM. The MIC ([16]; 48 h) was over 500 µM, the “MIC KP” value ([17]; 24h) was over 500 µM and the “MIC KP” value ([17]; 48h) was over 500 µM. For the same compound, the MIC ([18]; 24 h) was over 500 µM, the MIC ([18]; 48 h) was over 500 µM and the MIC ([19]; ATCC204305, 24 h) was over 125 µM. For the same compound, the MIC ([19]; ATCC204305, 48 h) was over 125 µM.
